Assay results: publication PMC10683482, “Offsetting Low-Affinity Carbohydrate Binding with Covalency to Engage Sugar-Specific Proteins for Tumor-Immune Proximity Induction” (ACS Central Science, 2023)

Test system: Hek-PSMA cells
Test: ADCC reporter assay with polyclonal human IgG, column step (Figure 3)
Assay type: cell-based
Details: 50 μM compound with 230 μM human IgG 72 h, column washing step
Method: Next, we investigated the potential ability of rhamnose cARMs and noncovalent ARM analogs to induce immune proximity with cancer targets. […] These compounds were then evaluated for their capacity to activate immune cells against PSMA cancer targets (Hek-PSMA cells) in an ADCC reporter assay (Figure 3). […] The formation of this complex may be prevented by the alkyl linker, which could adopt a fixed conformation via hydrophobic collapse.
Figure 3 ADCC reporter assay to evaluate cARM vs ARM immune function using polyclonal anti-rhamnose antibodies. Top: chemical structures of compounds evaluated. Bottom: ADCC assay. Each cARM/ARM (50 μM) was incubated with polyclonal human IgG (230 μM) for 72 h and passed through a Millipore centrifugation column. Antibody solutions were then resuspended to experimental concentrations and added to preplated Hek-P cells (50,000 cells). To this cell solution, luciferase-expressing jurkat cells were added and incubated for 24 h. Activation of jurkat was determined as a measure of luciferase expression with a BioGlo assay kit.
General Notes and Materials
ELISA - General notes and Materials […]
Plate absorbance was measured at 450 nm using a Tecan Spark Plate Reader. […]
Pre-cast Tris-Glycine Gels (4-20%) were purchased from Fisher Scientific (XP04202BOX). […] Gel fluorescence was imaged using a GE Typhoon imager (Cy2 channel for fluorescein, Cy5 channel for A647). […]

## C[C@@H]1O[C@@H](OCc2cn(CCc3cn(C(=O)OCCNC(=O)CCCCCNC(=O)CCCCCNC(=O)CCCCCNC(=O)NCCCC[C@H](NC(=O)N[C@@H](CCC(=O)O)C(=O)O)C(=O)O)cn3)nn2)[C@H](O)[C@H](O)[C@H]1O [compound 10]
  immune activation (jurkat luciferase): successfully mediated specific immune activation

## C[C@@H]1O[C@@H](OCc2cn(CCCNC(=O)OCCNC(=O)CCCCCNC(=O)CCCCCNC(=O)CCCCCNC(=O)NCCCC[C@H](NC(=O)N[C@@H](CCC(=O)O)C(=O)O)C(=O)O)nn2)[C@H](O)[C@H](O)[C@H]1O [compound 11]
  immune activation (jurkat luciferase): failed to induce immune activation
